{"source": "patent US11065245B2", "about": "“Priming of cancer cells with low dose naltrexone” (CANCER VACCINE INSTITUTE, priority 2014, dated 2021)", "key": {"[1]": {"tested_on": "human colon cancer cell growth", "settings": "murine xenograft model; cited from earlier work"}, "[2]": {"tested_on": "murine neuroblastoma", "settings": "murine xenograft model; cited from earlier work"}, "[3]": {"tested_on": "A549 cells (a lung cancer cell line)", "test": "Cell growth (MTT) with recovery (wash) phase after naltrexone", "format": "cell-based", "settings": "1 nM and 10 nM naltrexone 48 h then 24 h drug-free vs 72 h continuous", "method": "(§1) (A) A549 cells (a lung cancer cell line) and (B) HCT116 cells (a colorectal carcinoma cell line), were cultured for 48 h in 1 nM and 10 nM (low dose) naltrexone (LDN) and in 1 μM and 10 μM (standard dose) naltrexone (NTX). Cells were either then washed and allowed to grow in drug-free medium for 24 h (wash) or continuously cultured in naltrexone for a total of 72 h (72); cell was viability assessed by absorbance readings. Effect of the wash step on HCT116 cells were also measured by (C) 3-(4,5-dimethylthiazol-2-yl)-2,5-diphenyltetrazolium bromide (MTT) colorimetric assay, (D) cell counting and (E) percentage of viable cells.\n(§2) To study the effect of each agent on cell growth, cells growing exponentially were added to 96-well plates at a density of 3×10^4/well. Drugs were then added to the wells, ensuring an equal volume of 200 μl across the plate. Cell number was measured at 72 hr using a standard methylthiazoletetrazolium (MTT)-based assay without modifications. Briefly, MTT was added to each well to give a working concentration of 0.4 mg/ml, and plates returned to the incubator for a further 1 hr. After this time, the medium was aspirated off, 200 μl of DMSO was then added to each well and plates agitated gently for 5 min before measuring optical density at 540 nm in each well. […]"}, "[4]": {"tested_on": "Bcl-2-associated death promoter (BAD) protein", "test": "Western blot/densitometry of cell cycle proteins in HCT116 cells", "format": "cell-based, human", "settings": "10 nM naltrexone (LDN), 48 h", "method": "(§3) Methodologically, HCT116 cells were treated with NTX and LDN for 48 h before determination of cellular proteins as labelled in the figure. The intensities of each of the bands indicate the level at which these proteins were expressed, which were enumerated by density analysis.\n(§4) Cells were treated with 10 μM naltrexone (NTX) or 10 nM naltrexone (LDN) for 48 hr before they were harvested, and total cellular protein was solubilised in lysis buffer and resolved by Tris-glycine electrophoresis using a 4-12% bis-tris gradient-gel. Following transfer of proteins to 0.45-lm nitrocellulose membranes, blocking was performed in 5% (w/v) nonfat milk in TTBS [0.5% (v/v) Tween-20 in TBS (50 mM Tris, 150 mM NaCl, pH 8.0)]. Primary antibody probing for the protein specified in the figure were performed overnight at 4° C. before secondary probing using horseradish peroxidase-conjugated anti-species IgG1. Bands were visualised by the ECL-plus detection system. Densitometry analysis was performed using proprietary analysis software. RNA was extracted from these cells for gene expression analysis. RNA was purified by Trizol, followed by precipitation with isopropanol. […] Equal amounts (750 ng) of cRNA were hybridised to the Illumina human HT12-v3 arrays for 18 hr and subsequently processed according to manufacturer's instructions before scanning on an Illumina BeadArray Reader. […]"}, "[5]": {"tested_on": "phosphorylated AKT", "test": "Western blot/densitometry of cell cycle proteins in HCT116 cells", "format": "cell-based, human", "settings": "10 nM naltrexone (LDN), 48 h", "method": "as §3, §4"}, "[6]": {"tested_on": "human ovarian cancer cells", "settings": "short-term naltrexone exposure; cited from earlier work"}, "[7]": {"tested_on": "T98G cells (glioma cell line)", "test": "Cell growth (absorbance) with recovery (wash) phase after naltrexone", "format": "cell-based", "settings": "naltrexone 48 h then 24 h drug-free vs 72 h continuous", "method": "(§5) To study the effect of each agent on cell growth, cells growing exponentially were added to 96-well plates at a density of 3×10^4/well. Drugs were then added to the wells, ensuring an equal volume of 200 μl across the plate. Cell number was measured at 72 hr using a standard methylthiazoletetrazolium (MTT)-based assay without modifications. Briefly, MTT was added to each well to give a working concentration of 0.4 mg/ml, and plates returned to the incubator for a further 1 hr. After this time, the medium was aspirated off, 200 μl of DMSO was then added to each well and plates agitated gently for 5 min before measuring optical density at 540 nm in each well. The effect of recovery, where a wash step was included, was studied by removing naltrexone-containing medium and replacing this with fresh drug-free medium after 48 hr, before assessing cell number at the 72 hr time-point. Cell counting was performed by under light microscopy using staining with trypan blue to aid the discrimination of dead/dying cells. See description of FIGS. 1 and 2."}, "[8]": {"tested_on": "U87MG cells (glioma cell line)", "test": "Cell growth (absorbance) with recovery (wash) phase after naltrexone", "format": "cell-based", "settings": "naltrexone 48 h then 24 h drug-free vs 72 h continuous", "method": "as §5"}, "[9]": {"tested_on": "HCT116 cells (a colorectal carcinoma cell line)", "test": "Cell growth (MTT, cell counting, viability) with recovery (wash) phase after naltrexone", "format": "cell-based, human", "settings": "1 nM and 10 nM naltrexone 48 h then 24 h drug-free vs 72 h continuous", "method": "as §1, §2"}}}
{"smiles": "O=C1CC[C@@]2(O)[C@H]3Cc4ccc(O)c5c4[C@@]2(CCN3CC2CC2)[C@H]1O5", "note": "[LDN, morphinan-6-one, 17-(cyclopropylmethyl)-4,5-epoxy-3,14-di hydroxy-(5α)]", "values": [{"measurement": "growth of human colon cancer cells", "setting": "[1]", "result": "inhibition"}, {"measurement": "growth of murine neuroblastoma", "setting": "[2]", "result": "inhibition"}, {"measurement": "cell numbers, recovery (wash) phase vs continuous administration", "setting": "[3]", "result": "greater reduction in cell numbers"}, {"measurement": "BAD protein level relative to untreated cells", "setting": "[4]", "result": "upregulated"}, {"measurement": "phosphorylated AKT level relative to untreated cells", "setting": "[5]", "result": "downregulated"}, {"measurement": "DNA synthesis", "setting": "[6]", "result": "decrease in DNA synthesis"}, {"measurement": "cell numbers, recovery (wash) phase vs continuous administration", "setting": "[7]", "result": "greater reduction in cell numbers"}, {"measurement": "cell numbers, recovery (wash) phase vs continuous administration", "setting": "[8]", "result": "greater reduction in cell numbers"}, {"measurement": "cell numbers, recovery (wash) phase vs continuous administration", "setting": "[9]", "result": "greater reduction in cell numbers"}]}
